Source: US20200315998A1, “COMPOSITION FOR IMPROVING INTESTINAL BARRIER FUNCTION” (SUNTORY HOLDINGS LIMITED, priority 2017, published 2020)

Test system: Caco-2 cells
Test: Evaluation of intestinal barrier function improvement: TEER reduction suppression in Caco-2 monolayer with inflammatory cytokines (TNFα, IL-1β, IFNγ)
Type: cell-based, human
Conditions: for Synergistic effect (M.V./T.V.) / TEER reduction suppression ratio (%) +gallic acid (actual measurement value) (M.V.) / Synergistic effect (M.V./T/V/): combined use of phenolic compound and gallic acid
Description: The intestinal barrier function improvement effect is indicated by, for example, increase in the electrical resistance value (transepithelial electric resistance: TEER) of the intestinal epithelial cells or suppression of the decrease in the TEER. A substance increasing the TEER or suppressing the decrease thereof has the action of normalizing or strengthening the tight junction in the intestinal epithelial cells. The intestinal barrier function improvement effect is also indicated by decrease in the amount of a substance permeating from the intestinal side of the intestinal epithelial cells to the inside of the body. The person skilled in the art can select a specific method of evaluating the intestinal barrier function improvement effect depending on the purpose. For exarple, as shown in Examples to be described later, a method for measuring TEER using an intestinal permeation model using human intestinal epithelial cells (Caco-2 cells) can be used. Specifically, inflammatory cytokine (TNFα, IL-1β, IFNγ and the like) is added into Caco-2 monolayer cultured cells to produce a state where the intestinal barrier function can be collapsed in human. If the addition of a test substance suppresses the decrease in the TEER as compared with the case where the substance is not added, the test substance can be evaluated to have the intestinal barrier function improvement effect.
Caco-2 cells were cultured for three weeks at 37° C. in Transwell (manufactured by Millicell Corporation) using DMEM (Dulbecco's modified Eagle's medium). A medium was removed from a plate of cultured Caco-2 cells, and the well was washed 3 times with serum-free DMEM. The well was filled with the medium. Then, the transepithelial electrical resistance (TEER) of Caco-2 monolayer cells was measured by Millicell-ERS (manufactured by Millipore Corporation). Cells (TEER≥1000 Ω·cm^2) determined that a sufficient tight junction was formed were selected, and used for the next screening. Then, to test solutions (media) on both apical and basolateral membrane sides, a sample, TNFα (40 ng/mL), IL-1β (20 ng/mL), and IFNγ (10 ng/mL) were added, followed by cultivating for 48 hours. The sample was dissolved in dimethyl sulfoxide (DMSO), and the solution was then added to the test solutions. In this case, a well to which inflammatory cytokine (TNFα, IL-1β, and IFNγ) and the sample were not added was provided as normal. A well to which inflammatory cytokine was added and the sample was not added was provided as control. After the cultivation, TEER was measured again, to evaluate whether the sample suppressed the reduction (decrease) of TEER due to the inflammatory cytokine.
The TEER reduction suppression ratio (%) due to the sample was determined according to the following formula from the TEER values of the well to which the sample was added, normal, and control.
(Calculating formula of TEER reduction suppression ratio) TEER reduction suppression ratio (%)=100×((TEER of well to which sample is added)−(TEER of control))/((TEER of normal)−(TEER of control))
In this evaluation system, as the TEER reduction suppression ratio (%) is higher, an intestinal barrier function improvement effect is higher.

## Oc1cc(O)c2c(c1)O[C@H](c1cc(O)c(O)c(O)c1)[C@H](O)C2 [Epigallocatechin (EGC), epigallocatechin]
Evaluation 4, sample alone 1 μM, epigallocatechin (EGC) set to 1.0
  Relative value of TEER reduction suppression ratio: 1.0
Combined use of the phenolic compound with gallic acid, 1 μM each (Table 1)
  Synergistic effect (relative value of actual measurement value / relative value of theoretical value): 1.5

## O=C(OC[C@H]1O[C@@H](OC(=O)c2cc(O)c(O)c(O)c2)[C@H](OC(=O)c2cc(O)c(O)c(O)c2)[C@@H](OC(=O)c2cc(O)c(O)c(O)c2)[C@@H]1OC(=O)c1cc(O)c(O)c(O)c1)c1cc(O)c(O)c(O)c1 [1,2,3,4,6-penta-O-galloyl-β-D-glucose]
Each 1 μM
  Synergistic effect (M.V./T.V.): 1.4
  TEER reduction suppression ratio (%) +gallic acid (actual measurement value) (M.V.): 91%

## O=c1c(O[C@@H]2O[C@H](CO)[C@@H](O)[C@H](O)[C@H]2O)c(-c2ccc(O)c(O)c2)oc2cc(O)cc(O)c12 [Quercetin-3-O-glucopyranoside, quercetin-3-O-glucopyranoside]
Each 10 μM
  Synergistic effect (M.V./T/V/): 1.5
  TEER reduction suppression ratio (%) +gallic acid (actual measurement value) (M.V.): 47%

## O=c1c(O)c(-c2ccc(O)c(O)c2)oc2cc(O)cc(O)c12 [Quercetin, quercetin, reference compound]
Each 10 μM
  Synergistic effect (M.V./T/V/): 1.7
  TEER reduction suppression ratio (%) +gallic acid (actual measurement value) (M.V.): 61%
Sample alone 100 μM, TNFα 40 ng/mL, IL-1β 20 ng/mL, IFNγ 10 ng/mL, 48 hours
  TEER reduction suppression ratio: 75.0%

## O=C1c2c(O)cc(O)cc2O[C@H](c2ccc(O)c(O)c2)[C@H]1O [Taxifolin, taxifolin]
Each 10 μM
  Synergistic effect (M.V./T/V/): 2.0
  TEER reduction suppression ratio (%) +gallic acid (actual measurement value) (M.V.): 59%

## O=c1c(-c2ccc(O)cc2)coc2cc(O)cc(O)c12 [Genistein, genistein]
Each 10 μM
  Synergistic effect (M.V./T/V/): 1.6
  TEER reduction suppression ratio (%) +gallic acid (actual measurement value) (M.V.): 58%

## O=C(OC[C@H]1O[C@@H](OC(=O)c2cc(O)c(O)c(O)c2)[C@H](OC(=O)c2cc(O)c(O)c(O)c2)[C@@H](OC(=O)c2cc(O)c(O)c(O)c2)[C@@H]1O)c1cc(O)c(O)c(O)c1 [1,2,3,6-tetra-O-galloyl-β-D-glucose]
Each 1 μM
  Synergistic effect (M.V./T.V.): 1.5
  TEER reduction suppression ratio (%) +gallic acid (actual measurement value) (M.V.): 81%

## O=C(O[C@@H]1O[C@@H]2COC(=O)c3cc(O)c(O)c(O)c3-c3c(cc(O)c(O)c3O)C(=O)O[C@H]([C@H]1O)[C@@H]2O)c1cc(O)c(O)c(O)c1 [Corilagin, corilagin]
Each 1 μM
  Synergistic effect (M.V./T.V.): 3.4
  TEER reduction suppression ratio (%) +gallic acid (actual measurement value) (M.V.): 76%

## O=C(O[C@@H]1Cc2c(O)cc(O)cc2O[C@@H]1c1ccc(O)c(O)c1)c1cc(O)c(O)c(O)c1 [Epicatechin gallate, epicatechin gallate]
Each 10 μM
  Synergistic effect (M.V./T/V/): 2.3
  TEER reduction suppression ratio (%) +gallic acid (actual measurement value) (M.V.): 110%

## COc1cc(-c2[o+]c3cc(O)cc(O)c3cc2O)cc(O)c1O [Petunidin chloride, petunidin chloride]
Each 10 μM
  Synergistic effect (M.V./T/V/): 1.9
  TEER reduction suppression ratio (%) +gallic acid (actual measurement value) (M.V.): 70%

## O=c1c(O)c(-c2cc(O)c(O)c(O)c2)oc2cc(O)cc(O)c12 [Myricetin, myricetin]
Each 10 μM
  Synergistic effect (M.V./T/V/): 1.2
  TEER reduction suppression ratio (%) +gallic acid (actual measurement value) (M.V.): 75%

## O=C(OC[C@H]1O[C@@H](OC(=O)c2cc(O)c(O)c(O)c2)[C@H](OC(=O)c2cc(O)c(O)c(O)c2)[C@@H](O)[C@@H]1OC(=O)c1cc(O)c(O)c(O)c1)c1cc(O)c(O)c(O)c1 [1,2,4,6-tetra-O-galloyl-β-D-glucose]
Each 1 μM
  Synergistic effect (M.V./T.V.): 1.4
  TEER reduction suppression ratio (%) +gallic acid (actual measurement value) (M.V.): 56%

## O=c1cc(-c2ccc(O)cc2)oc2cc(O)cc(O)c12 [Apigenin, apigenin]
Each 10 μM
  Synergistic effect (M.V./T/V/): 4.1
  TEER reduction suppression ratio (%) +gallic acid (actual measurement value) (M.V.): 51%

## Oc1cc(O)c2c(c1)O[C@H](c1ccc(O)c(O)c1)[C@H](O)[C@H]2c1c(O)cc(O)c2c1O[C@H](c1ccc(O)c(O)c1)[C@@H](O)C2 [Procyanidin B1, procyanidin B1]
Each 10 μM
  Synergistic effect (M.V./T/V/): 2.4
  TEER reduction suppression ratio (%) +gallic acid (actual measurement value) (M.V.): 74%
Sum of ratios of phenolic compound alone and gallic acid alone, 10 μM each
  TEER reduction suppression ratio (%) +gallic acid (theoretical value) (T.V.): 31%
